Data published in patent US10702530B2, “Screening method” (Hoffmann-La Roche Inc., priority 2013, dated 2020).

Columns and labels:
FoxM1A mRNA = test: Upregulation of FoxM1A mRNA by RT-qPCR in human fibroblasts; format: cell-based; conditions: Fibroblast, 24 hours, Hill fit, read-out: EC50 for increased expression of FoxM1A mRNA including exon 9
Description: (§1) FIGS. 1A, 1B and 1C. Induction of alternative splicing of FoxM1 towards FoxM1A in fibroblasts. Human fibroblasts were incubated with cpds. 1-4 at different doses for 24 hours, and changes in FoxM1A RNA (containing exon A2) and FoxM1B/C (lacking exon A2) mRNA expression were assessed by RT-qPCR. Dose response curves were fitted to a Hill binding equation to estimate the EC50. FIG. 1A., upregulation of FoxM1A mRNA; FIG. 1B., downregulation of FoxM1B/C mRNA; FIG. 1C., Correlation of EC50 values for FoxM1A upregulation and FoxM1B/C downregulation. Data represent means±SEM of 4 independent observations.
(§2) To investigate an effect on splicing of FoxM1, human fibroblasts were treated for 24 hours with cpds. 1-4 in dose response, and analysed by RT-qPCR for presence of mRNA including (FoxM1A) or excluding (FoxM1B/C) the Δ9 exon. The resulting dose response curves were fitted to a Hill binding equation. […] 1, 2, 3 and 4, respectively. […] 1, 2, 3 and 4, respectively.
(§3) Fibroblasts, at 10000 cells per cm^2 were treated with varying doses of compounds ([…]) for 24 hours. RNA extraction was performed as per instructions mentioned in the Ambion® Cells-to-CT™ Kits from Applied Biosystems®. RNA samples were frozen at −20° C. until further analysis. Relative expression levels of FoxM1A or FoxM1B/C along with GAPDH for internal control, was measured using one-step multiplex reverse transcription-polymerase chain reaction (RT-PCR). TaqMan® FAM probes were used for relative quantitation of FoxM1A or FoxM1B/C expression levels and TaqMan® VIC probes were used for relative quantitation of human GAPDH levels. The fidelity of the amplification methods was determined using the ΔΔCt relative quantification method for quantitative PCR.

FoxM1B/C mRNA = test: Downregulation of FoxM1B/C mRNA by RT-qPCR in human fibroblasts; format: cell-based; conditions: Fibroblast, 24 hours, Hill fit, read-out: EC50 for decline of FoxM1B/C mRNAs lacking exon 9
Description: as §1, §2, §3

human fibroblasts [1] = test: Micronuclei induction (MNT) in fibroblasts; format: cell-based; conditions: dose response, 2% cut-off
Description: (§4) FIGS. 2A, 2B and 2C. Induction of proliferation arrest and cell death by cpds. Alternating FoxM1 splicing towards FoxM1A in fibroblasts. Human fibroblasts were incubated with cpds. 1-4 at different doses for 5 days (120 hours), and changes in cellular impedance (Cell Index) were assessed online. Data are expressed as delta Cell Index after normalization for the starting value of each well. Data at 72, 96 and 120 hour time points (see arrows) were averaged for quantification. FIG. 2A, Micronuclei induction (MNT) in fibroblasts with increasing doses of cpd. 1-4; FIG. 2B, Dose-dependent induction of cytotoxicity by cpds. 1-4. expressed as % of untreated control after 24 hours. A cut-off at 75% (ED75%, dashed line) defined the concentration at which a meaningful impact on proliferation and cell survival was observed. […] 1-4. expressed as % of untreated control. […]
(§5) For investigation of the effect of altered FoxM1 expression on micronucleus induction (MNT) and cell survival, human fibroblasts were treated for up to 120 hours with cpds. 1-4 in dose response, and MNT, cytotoxicity or Cell Index were assessed on the xCELLigence platform, monitoring proliferation rates and cell death online. To define a quantitative measure for cytotoxic effects, a 2% cut-off for MNT induction (FIG. 2A), a 75% cut-off for cell survival (EC75%), and a 75% cut-off was estimated (ED75%). […]

human fibroblasts [2] = test: Cytotoxicity in fibroblasts; format: cell-based; conditions: dose response, 75% cut-off, 24 hours
Description: as §4, §5

human fibroblasts [3] = test: Cell Index (cellular impedance, xCELLigence) in fibroblasts; format: cell-based; conditions: up to 120 hours, 75% cut-off
Description: as §4, §5

[4] = tested on: Human BT474 breast cancer cells; test: Western blot, actin protein in BT474 breast cancer cells; format: cell-based; conditions: BT474, 10 μM
Description: (§6) Upregulation of FoxM1A protein correlates with cytotoxicity in breast cancer cells. Human BT474 breast cancer cells were treated with cpd. 2 at 10 μM for 1 or 2 days under proliferating conditions (in the presence of serum), and total protein extracts analyzed by SDS PAGE and Western Blot for FoxM1A and actin protein levels. To assess if increase in FoxM1A protein by alternative splicing of FoxM1 towards FoxM1A induces cell death in a cancer condition, human breast cancer cells (BT474) were treated to modulate FoxM1 expression, and FoxM1A protein levels were assessed at day 1 and 2 of treatment. On day 1 and 2 under control conditions, FoxM1A was detectable by Western Blot, but at low concentrations. Treatment with cpd. […] 2 at 10 μM, whereas FoxM1A levels were increased in the same samples by nearly 3-fold. When normalized to actin, FoxM1A protein levels increased by 28-fold by treatment with cpd. 2 at 10 μM. […] Data represent means±SEM of 3 independent observations. Statistical comparison was performed by one-way ANOVA followed by Dunnet's post-hoc test. *, p<0.05, ***, p<0.001.
(§7) Human myoblasts were acquired from ECACC, BT474 cells were obtained from ATCC, and were cultivated according to supplier protocols. […] Fluorescence was acquired with the Odyssey imaging system (Licor Biosciences), FoxM1A intensity was normalized for actin. Data were analyzed using GraphPad software.

FoxM1A protein [5] = test: Western blot, FoxM1A protein in BT474 breast cancer cells; format: cell-based, human; conditions: BT474, 10 μM
Description: as §6
Human myoblasts were acquired from ECACC, BT474 cells were obtained from ATCC, and were cultivated according to supplier protocols. For experimental purpose, human myoblasts were cultivated for 5 days and were treated with varying doses of compounds (0.1-10 μM). BT474 cells were cultivated for up to 2 days and treated with compounds at 10 μM. For Western blot analyses, myoblast cells treated over 5 days or BT474 cells treated for 2 days were lysed in boiling Laemmli buffer (Bio-Rad) containing 100 mM dithiothreitol. SDS PAGE blots were probed with rabbit-anti FoxM1 antibody (Cell Signaling Technology, 1:1000), goat anti-Actin (Santa Cruz Biotechnology, 1:20000) and Alexa680/800 secondary antibodies (Molecular Probes, 1:10,000). Fluorescence was acquired with the Odyssey imaging system (Licor Biosciences), FoxM1A intensity was normalized for actin. Data were analyzed using GraphPad software.

human primary myoblasts [6] = test: Western blot, actin protein (surrogate for cell number) in proliferating human myoblasts; format: cell-based; conditions: proliferating conditions (serum), 5 days, doses up to 10 μM
Description: (§8) FIGS. 5A, 5B and 5C. Upregulation of FoxM1A protein correlates with cytotoxicity in myoblasts. Human myoblasts were treated with cpd. 3 (0.1, 1 and 10 μM) for 5 days under proliferating conditions (in the presence of serum), and total protein extracts analyzed by SDS PAGE and Western Blot for FoxM1A and actin protein levels. FIG. 5A, FoxM1A and actin Western blots from samples treated without (control) or with cpd. 3 (0.1, 1 and 10 μM); FIG. 5B, Protein levels of actin (surrogate for cell number); FIG. 5C, FoxM1A/actin ratio. Data represent means±SEM of 3 independent observations. Statistical comparison was performed by one-way ANOVA followed by Dunnet's post-hoc test. *, p<0.05, **, p<0.01, ***, p<0.001.
(§9) To assess if alternative splicing of FoxM1 towards FoxM1A results in meaningful changes in the protein levels and cell death, human primary myoblasts were treated under proliferating conditions to modulate FoxM1 expression and evaluate its consequence. Under proliferative conditions, FoxM1A was detectable by Western Blot, but at low concentrations […]. Treatment with cpd. […]
as §7

FoxM1A protein [7] = test: Western blot, FoxM1A protein in proliferating human myoblasts; format: cell-based; conditions: proliferating conditions (serum), 5 days, highest dose (10 μM)
Description: as §8, §9, §7

human primary myoblasts [8] = test: Western blot, actin protein in differentiating (non-proliferating) human myoblasts; format: cell-based; conditions: differentiating conditions (no serum), 5 days, doses up to 10 μM
Description: (§10) FIGS. 6A and 6B. No change in FoxM1A protein and no cytotoxicity in non-proliferating myoblasts. Human myoblasts were treated with cpd. 3 (0.1, 1 and 10 μM) for 5 days under differentiating conditions (in the absence of serum), and total protein extracts analyzed by SDS PAGE and Western Blot for FoxM1A and actin protein levels. FIG. 6A, FoxM1A and actin Western blots from samples treated without (control) or with cpd. 3 (0.1, 1 and 10 μM). Note that FoxM1A protein was undetectable; FIG. 6B, Protein levels of actin. Data represent means±SEM of 3 independent observations. Statistical comparison was performed by one-way ANOVA followed by Dunnet's post-hoc test.
(§11) To assess if alternative splicing of FoxM1 towards FoxM1A is present also in cells that are not proliferating, the same human primary myoblasts were differentiated to investigate if FoxM1 expression is also present and can be modulated similarly under those conditions. Under differentiating conditions, FoxM1A was undetectable by Western Blot (FIG. 6A). Treatment with cpd.
as §7

FoxM1A protein [9] = test: Western blot, FoxM1A protein in differentiating (non-proliferating) human myoblasts; format: cell-based; conditions: differentiating conditions (no serum), 5 days, doses up to 10 μM
Description: as §10, §11, §7

SMILES | EC50 (FoxM1A mRNA) [nM] | EC50 (FoxM1B/C mRNA) [nM] | Potency in MNT (micronucleus induction) (human fibroblasts [1]) | Potency in cytotoxicity (human fibroblasts [2]) | Potency in reduction of Cell Index (human fibroblasts [3]) | Reduction of actin protein ([4]; day 1) [%] | Reduction of actin protein ([4]; day 2) | Increase of FoxM1A protein levels normalized to actin (FoxM1A protein [5]) [fold] | Effect on FoxM1A protein (FoxM1A protein [5]; day 1) | Increase of FoxM1A protein levels (FoxM1A protein [5]; day 2 (same samples)) [fold] | Reduction of actin protein level compared to controls (human primary myoblasts [6]) [fold] | Increase of FoxM1A protein level normalized to actin (FoxM1A protein [7]) [fold] | Actin protein level compared to controls (human primary myoblasts [8]) | FoxM1A levels normalized to actin (FoxM1A protein [9])
CCc1nc(C)cn2nc(-c3cc(=O)n4cc(C5=CCNCC5)cc(C)c4n3)cc12 [Compound 2, 2-(4-ethyl-6-methylpyrazolo[1,5-a]pyrazin-2-yl)-9-methyl-7-(1,2,3,6-tetrahydropyridin-4-yl)-4H-pyrido[1,2-a]pyrimidin-4-one] | 16 | 14 | most potent | most potent | most potent | 18 | more than 90% | 28 | did not have any effect | ~3 | – | – | – | –
Cc1cn2nc(-c3cc(=O)n4cc(N5CCNCC5)ccc4n3)cc2c(C)n1 [Compound 4, 2-(4,6-dimethylpyrazolo[1,5-a]pyrazin-2-yl)-7-(piperazin-1-yl)-4H-pyrido[1,2-a]pyrimidin-4-one] | 68 | 104 | most potent | most potent | most potent | – | – | – | – | – | – | – | – | –
CCN1CCC(c2cc(C)c3nc(-c4cc5c(C)nc(C)cn5n4)cc(=O)n3c2)CC1 [Compound 1, 2-(4,6-dimethylpyrazolo[1,5-a]pyrazin-2-yl)-7-(1-ethylpiperidin-4-yl)-9-methyl-4H-pyrido[1,2-a]pyrimidin-4-one] | 246 | 724 | – | – | – | – | – | – | – | – | – | – | – | –
Cc1cn2nc(-c3cc(=O)n4cc(N5CCN(C)CC5)ccc4n3)cc2c(C)n1 [Compound 3, 2-(4,6-dimethylpyrazolo[1,5-a]pyrazin-2-yl)-7-(4-methylpiperazin-1-yl)-4H-pyrido[1,2-a]pyrimidin-4-one] | 1210 | 3540 | – | – | – | – | – | – | – | – | 6 | 30 | not altered | undetectable
